How the values were obtained:
[1] = adrenalin alone 30 μg/kg intramuscular, anesthetized rabbits
[2] = in animals as well as in humans; cited from earlier work
[3] = adrenalin alone 30 μg/kg intramuscular, anesthetized rabbits; remark: listed apart in the source

CNC[C@H](O)c1ccc(O)c(O)c1 [adrenalin]
hypertensive episodes [1]: two hypertensive episodes occurred at the times of the plasma adrenalin peaks
delay of the bulk of the increase in plasma levels of adrenalin after injection [2]: about 20 minutes
AUC of second plasma adrenalin peak relative to the first one [3]: about 20 times
time of first narrow peak in plasma adrenalin level [3]: a few minutes following the injection
time of second, much larger peak in plasma adrenalin level ([3]; later than first peak): 20 min

From US10952987B2 (BIOPROJET, priority 2012, dated 2021)
